Assay results as given in US20130310362A1, “FUSED PYRIMIDINES” (BAYER PHARMA AKTIEGESELLSCHAFT, priority 2009, published 2013).

Tests used:
[1] = system: Akt phosphorylation (Ser473) in MCF7 cells; assay: Cellular PI3K/Akt pathway assay (Phospho-Akt1 (Ser473) sandwich ELISA); assay type: cell-based; conditions: Homo sapiens, β-Heregulin stimulated, 48 h incubation, read-out: IC50 p-Akt (Biological Assay 5.0)
Procedure: Biological Assay 5.0: Cellular PI3K/Akt Pathway Assay
In order to study the cellular activity of the compounds according to the present invention, an Enzyme Linked Immunosorbent Assay (ELISA)-based assay may be used to investigate the inhibitory effect on Akt phosphorylation.
The ELISA Kit detects endogenous levels of phosphorylated Akt protein. […] After incubation with cell lysates, the coated antibody captures the phosphorylated Akt protein. […] The magnitude of optical density for this developed color is proportional to the quantity of phosphorylated Akt protein. MCF7 cells (ATCC HTB-22) are seeded into 96 well fate bottom plates at a density of 10000 cells/well. 24 hours after seeding, the cells are serum starved using low-serum medium (IMEM media including 0.1% charcoal treated FCS (FCS: fetal calf serum)). After 24 hours 1 μl each of the compound dilutions (test compounds were dissolved as 10 mM solutions in dimethylsulfoxide (DMSO) and subsequently diluted) are added into each well of the 96 well plates and incubated for 48 h at 37° C. in a humidified athmosphere containing 5% CO2. To stimulate Akt phosphorylation, β-Heregulin (20 ng/mL β-HRG) is added in parallel to the compounds. Wells containing unstimulated control cells (no β-Heregulin stimulation) are incubated with or without the diluted compound. Wells containing untreated control cells (no compound) are filled with medium containing 0.5% v:v DMSO and are or are not stimulated with 3-Heregulin.
Cells are harvested and lysed with brief sonification in 1× cell lysis buffer (20 mM Tris (pH7.5), 150 mM NaCl, 1 mM ethylene diaminetetraacetate (EDTA), 1 mM ethylene glycolbis(2-aminoethyl)-N,N,N′,N′-tetraacetic acid (EGTA), 1 vol % Triton X-100, 2.5 mM sodium pyrophosphate, 1 mM β-glycerolphosphate, 1 mM Na3VO4, 1 μg/mL leupeptin). The lysate is centrifuged for 10 min. at 4° C. and the supernatant is transferred to a new tube. […] The absorbance is measured at λ=450 nm (Wallac Victor2; Perkin Elmer, USA) within 30 min. after adding the STOP solution. […]

[2] = molecular target: T1, human recombinant kinase full-length Akt1 (Homo sapiens, UniProt P31749); assay: Akt1 kinase assay (TR-FRET); assay type: biochemical; conditions: 10 μM ATP, 1 μM peptide substrate, 60 min at 22° C.; read-out: IC50 Akt1 Biological Assay 1.0)
T1 construct: human recombinant kinase full-length Akt1; His; purchased Invitrogen PV 3599; host or cells: insect cells
T1 sequence (P31749 whole entry): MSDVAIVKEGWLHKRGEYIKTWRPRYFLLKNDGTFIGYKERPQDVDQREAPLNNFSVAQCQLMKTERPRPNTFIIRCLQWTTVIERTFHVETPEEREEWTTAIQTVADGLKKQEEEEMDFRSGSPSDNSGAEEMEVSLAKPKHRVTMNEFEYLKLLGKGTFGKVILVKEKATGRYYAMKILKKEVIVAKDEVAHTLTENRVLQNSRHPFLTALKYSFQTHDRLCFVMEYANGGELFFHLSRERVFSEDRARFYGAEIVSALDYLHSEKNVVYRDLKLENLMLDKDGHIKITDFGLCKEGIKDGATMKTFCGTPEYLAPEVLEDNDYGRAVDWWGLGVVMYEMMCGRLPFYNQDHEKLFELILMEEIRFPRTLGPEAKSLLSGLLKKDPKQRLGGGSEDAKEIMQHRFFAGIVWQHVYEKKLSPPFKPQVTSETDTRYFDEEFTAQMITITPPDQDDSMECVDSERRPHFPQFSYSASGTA
Source text: Biological Assay 1.0: Akt1 Kinase Assay
Akt1 inhibitory activity of compounds of the present invention may be quantified employing the Akt1 TR-FRET assay as described in the following paragraphs.
His-tagged human recombinant kinase full-length Akt1 expressed in insect cells was purchased form Invitrogen (part number PV 3599). As substrate for the kinase reaction the biotinylated peptide biotin-Ahx-KKLNRTLSFAEPG (C-terminus in amide form) was used which can be purchased e.g. from the company Biosynthan GmbH (Berlin-Buch, Germany).
(§1) For the assay 50 nl of a 100 fold concentrated solution of the test compound in DMSO was pipetted into a black low volume 384 well microtiter plate (Greiner Bio-One, Frickenhausen, Germany), 2 μl of a solution of Akt1 in assay buffer [50 mM TRIS/HCl pH 7.5, 5 mM MgCl2, 1 mM dithiothreitol, 0.02% (v/v) Triton X-100 (Sigma)] were added and the mixture was incubated for 15 min at 22° C. to allow pre-binding of the test compounds to the enzyme before the start of the kinase reaction. Then the kinase reaction was started by the addition of 3 μl of a solution of adenosine-tri-phosphate (ATP, 16.7 μM=>final conc. in the 5 μl assay volume is 10 μM) and substrate (1.67 μM=>final conc. in the 5 μl assay volume is 1 μM) in assay buffer and the resulting mixture was incubated for a reaction time of 60 min at 22° C. The concentration of Akt1 in the assay was adjusted depending of the activity of the enzyme lot and was chosen appropriate to have the assay in the linear range, typical enzyme concentrations were in the range of about 0.05 ng/μl (final conc. in the 5 μl assay volume).
(§2) The reaction was stopped by the addition of 5 μl of a solution of HTRF detection reagents (200 nM streptavidine-XL665 [Cisbio] and 1.5 nM anti-phosho-Serine antibody [Millipore, cat. #35-001] and 0.75 nM LANCE Eu-W 1024 labeled anti-mouse IgG antibody [Perkin Elmer]) in an aqueous EDTA-solution (100 mM EDTA, 0.1% (w/v) bovine serum albumin in 50 mM HEPES/NaOH pH 7.5). The resulting mixture was incubated 1 h at 22° C. to allow the binding of the biotinylated phosphorylated peptide to the streptavidine-XL665 and the antibodies. Subsequently the amount of phosphorylated substrate was evaluated by measurement of the resonance energy transfer from the anti-mouse-IgG-Eu-Chelate to the streptavidine-XL665. Therefore, the fluorescence emissions at 620 nm and 665 nm after excitation at 350 nm was measured in a HTRF reader, e.g. a Rubystar (BMG Labtechnologies, Offenburg, Germany) or a Viewlux (Perkin-Elmer). The ratio of the emissions at 665 nm and at […] was taken as the measure for the amount of phosphorylated substrate. The data were normalised (enzyme reaction without inhibitor=0% inhibition, all other assay components but no enzyme=100% inhibition). Normally test compound were tested on the same microtiter plate at 10 different concentrations in the range of 20 μM to 1 nM (20 μM, 6.7 μM, 2.2 μM, 0.74 μM, 0.25 μM, 82 nM, 27 nM, 9.2 nM, 3.1 nM and 1 nM, dilution series prepared before the assay at the level of the 100 fold conc. stock solutions by serial 1:3 dilutions) in duplicate values for each concentration and 1050 values were calculated by a 4 parameter fit using an inhouse software.

[3] = molecular target: T2, human recombinant kinase full-length Akt2 (Homo sapiens, UniProt P31751); assay: Akt2 kinase assay (TR-FRET); assay type: biochemical; conditions: Akt2 activated by PDK1, 10 μM ATP, 1 μM peptide substrate, 60 min at 22° C.; read-out: IC50 Akt2 (Biological Assay 2.0)
T2 construct: human recombinant kinase full-length Akt2; His; purchased Invitrogen PV 3975; host or cells: insect cells
T2 sequence (P31751 whole entry): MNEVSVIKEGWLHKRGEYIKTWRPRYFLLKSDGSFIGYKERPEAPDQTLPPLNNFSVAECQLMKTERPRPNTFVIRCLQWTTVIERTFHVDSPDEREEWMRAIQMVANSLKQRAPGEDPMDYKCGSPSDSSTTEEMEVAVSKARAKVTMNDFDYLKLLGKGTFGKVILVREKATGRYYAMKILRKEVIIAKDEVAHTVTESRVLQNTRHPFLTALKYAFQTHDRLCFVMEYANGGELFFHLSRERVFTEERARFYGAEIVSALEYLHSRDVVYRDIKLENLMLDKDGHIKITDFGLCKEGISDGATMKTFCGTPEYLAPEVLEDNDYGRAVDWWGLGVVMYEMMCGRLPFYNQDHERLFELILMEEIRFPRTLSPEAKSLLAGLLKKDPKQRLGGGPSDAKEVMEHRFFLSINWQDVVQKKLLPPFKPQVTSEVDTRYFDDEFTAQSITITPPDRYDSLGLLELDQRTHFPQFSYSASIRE
Source text: Biological Assay 2.0: Akt2 Kinase Assay
Akt2 inhibitory activity of compounds of the present invention was quantified employing the Akt2 TR-FRET assay as described in the following paragraphs.
as §1, with “His-tagged human recombinant kinase full-length Akt2 expressed in insect cells and activated by PDK1 was purchased form Invitrogen (part number PV 3975). As substrate for the kinase reaction the biotinylated peptide biotin-Ahx-KKLNRTLSFAEPG (C-terminus in amide form) was used which can be purchased e.g. from the company Biosynthan GmbH (Berlin-Buch, Germany). For” for “For”, “Akt2” for “Akt1”, “0.2” for “0.05”
as §2, with “a TR-FRET” for “a HTRF”, “inhibition).” for “inhibition). Normally test compound were tested on the same microtiter plate at 10 different concentrations in the range of 20 μM to 1 nM (20 μM, 6.7 μM, 2.2 μM, 0.74 μM, 0.25 μM, 82 nM, 27 nM, 9.2 nM, 3.1 nM and 1 nM, dilution series prepared before the assay at the level of the 100 fold conc. stock solutions by serial 1:3 dilutions) in duplicate values for each concentration and 1050 values were calculated by a 4 parameter fit using an inhouse software.”

Compound	IC50 [1] [nM]	IC50 [2] [nM]	IC50 [3] [nM]
Cc1nnc2c(-c3ccccc3)c(-c3ccc(CN4CCC(c5n[nH]c(-c6ccccn6)n5)CC4)cc3)ncn12 [Example 4.0, 3-methyl-8-phenyl-7-{4-[4-(5-pyridin-2-yl-1H-[1,2,4]triazol-3-yl)-piperidin-1-ylmethyl]-phenyl}-[1,2,4]triazolo[4,3-c]pyrimidine]	< 500	–	–
Cc1ccc(-c2nc(C3CCN(Cc4ccc(-c5nc(C)n6ccnc6c5-c5ccccc5)cc4)CC3)n[nH]2)nc1C [Example 5.0, 7-(4-{4-[5-(5,6-dimethyl-pyridin-2-yl)-1H-[1,2,4]triazol-3-yl]-piperidin-1-ylmethyl}-phenyl)-5-methyl-8-phenyl-imidazo[1,2-c]pyrimidine]	–	3	27
Cc1nc(-c2ccc(CN3CC(c4n[nH]c(-c5ccccn5)n4)C3)cc2)c(-c2ccccc2)c2nccn12 [Example 6.0, 5-methyl-8-phenyl-7-{4-[3-(5-pyridin-2-yl-1H-[1,2,4]triazol-3-yl)-azetidin-1-ylmethyl]-phenyl}-imidazo[1,2-c]pyrimidine]	–	3	81
Cc1nc(-c2ccc(CN3CCC(c4n[nH]c(-c5cnccn5)n4)CC3)cc2)c(-c2ccccc2)c2nccn12 [Example 7.0, 5-methyl-8-phenyl-7-{4-[4-(5-pyrazin-2-yl-1H-[1,2,4]triazol-3-yl)-piperidin-1-ylmethyl]-phenyl}-imidazo[1,2-c]pyrimidine]	–	12	334
Cc1nc(-c2ccc(CN3CCC(c4n[nH]c(-c5ncccn5)n4)CC3)cc2)c(-c2ccccc2)c2nccn12 [Example 8.0, 5-methyl-8-phenyl-7-{4-[4-(5-pyrimidin-2-yl-1H-[1,2,4]triazol-3-yl)-piperidin-1-ylmethyl]-phenyl}-imidazo[1,2-c]pyrimidine]	–	14	414
Brc1ccc(-c2nc(C3CCN(Cc4ccc(-c5ncn6ccnc6c5-c5ccccc5)cc4)CC3)n[nH]2)nc1 [Example 9.0, 7-(4-{4-[5-(5-bromo-pyridin-2-yl)-1H-[1,2,4]triazol-3-yl]-piperidin-1-ylmethyl}-phenyl)-8-phenyl-imidazo[1,2-c]pyrimidine]	–	18	185
Cc1ccc(-c2nc(C3CCN(Cc4ccc(-c5ncn6ccnc6c5-c5ccccc5)cc4)CC3)n[nH]2)nc1C [Example 10.0, 7-(4-{4-[5-(5,6-dimethyl-pyridin-2-yl)-1H-[1,2,4]triazol-3-yl]-piperidin-1-ylmethyl}-phenyl)-8-phenyl-imidazo[1,2-c]pyrimidine]	–	7	38
c1ccc(-c2c(-c3ccc(CN4CCC(c5n[nH]c(-c6cnccn6)n5)CC4)cc3)ncn3ccnc23)cc1 [Example 11.0, 8-phenyl-7-{4-[4-(5-pyrazin-2-yl-1H-[1,2,4]triazol-3-yl)-piperidin-1-ylmethyl]-phenyl}-imidazo[1,2-c]pyrimidine]	–	29	445
Fc1ccc(-c2nc(C3CCN(Cc4ccc(-c5ncn6ccnc6c5-c5ccccc5)cc4)CC3)n[nH]2)nc1 [Example 11.1, 7-(4-{4-[5-(5-fluoro-pyridin-2-yl)-1H-[1,2,4]triazol-3-yl]-piperidin-1-ylmethyl}-phenyl)-8-phenyl-imidazo[1,2-c]pyrimidine]	–	19	98
Cc1ccc(-c2nc(C3CCN(Cc4ccc(-c5ncn6ccnc6c5-c5ccccc5)cc4)CC3)n[nH]2)nc1 [Example 12.0, 7-(4-{4-[5-(5-methyl-pyridin-2-yl)-1H-[1,2,4]triazol-3-yl]-piperidin-1-ylmethyl}-phenyl)-8-phenyl-imidazo[1,2-c]pyrimidine]	–	8	50
Clc1cccc(-c2nc(C3CCN(Cc4ccc(-c5ncn6ccnc6c5-c5ccccc5)cc4)CC3)n[nH]2)n1 [Example 13.0, 7-(4-{4-[5-(6-chloro-pyridin-2-yl)-1H-[1,2,4]triazol-3-yl]-piperidin-1-ylmethyl}-phenyl)-8-phenyl-imidazo[1,2-c]pyrimidine]	–	16	132
Cc1cc(C)nc(-c2nc(C3CCN(Cc4ccc(-c5ncn6ccnc6c5-c5ccccc5)cc4)CC3)n[nH]2)c1 [Example 14.0, 7-(4-{4-[5-(4,6-dimethyl-pyridin-2-yl)-1H-[1,2,4]triazol-3-yl]-piperidin-1-ylmethyl}-phenyl)-8-phenyl-imidazo[1,2-c]pyrimidine]	–	7	16
FC(F)(F)c1ccnc(-c2nc(C3CCN(Cc4ccc(-c5ncn6ccnc6c5-c5ccccc5)cc4)CC3)n[nH]2)c1 [Example 15.0, 8-phenyl-7-(4-{4-[5-(4-trifluoromethyl-pyridin-2-yl)-1H-[1,2,4]triazol-3-yl]-piperidin-1-ylmethyl}-phenyl)-imidazo[1,2-c]pyrimidine]	–	22	222
c1ccc(-c2c(-c3ccc(CN4CC(c5n[nH]c(-c6ccccn6)n5)C4)cc3)ncn3ccnc23)cc1 [Example 16.0, 8-phenyl-7-{4-[3-(5-pyridin-2-yl-1H-[1,2,4]triazol-3-yl)-azetidin-1-ylmethyl]-phenyl}-imidazo[1,2-c]pyrimidine]	–	12	52
